Each block holds one molecule with its values, some of them ahead of it. *1 amine or outer side, *2 acyl side, *3 side chain or, on linkers, in order; H or OH if unused. Where a SMILES comes first, the peptide text is derived from it. The star is where a group is joined. X1 = Brc1c(Br)c(Br)c2[nH]c(NCCCN*)nc2c1Br; Suc = O=C(CCC(=O)[*:2])[*:1]
Experiments:
[1] = Inhibition of CK2alpha2beta2 (unknown origin); parameters: species or system Homo sapiens
[2] = Binding affinity to human PKAc beta-S54L mutant assessed as dissociation constant
[3] = biological target: cAMP-dependent protein kinase catalytic subunit beta (Homo sapiens, UniProt P22694); experiment: Binding affinity to human wild-type PKAc beta assessed as dissociation constant
[4] = biological target: Mitogen-activated protein kinase 1 (Homo sapiens, UniProt P28482)
Mitogen-activated protein kinase 1, sequence (P28482 whole entry): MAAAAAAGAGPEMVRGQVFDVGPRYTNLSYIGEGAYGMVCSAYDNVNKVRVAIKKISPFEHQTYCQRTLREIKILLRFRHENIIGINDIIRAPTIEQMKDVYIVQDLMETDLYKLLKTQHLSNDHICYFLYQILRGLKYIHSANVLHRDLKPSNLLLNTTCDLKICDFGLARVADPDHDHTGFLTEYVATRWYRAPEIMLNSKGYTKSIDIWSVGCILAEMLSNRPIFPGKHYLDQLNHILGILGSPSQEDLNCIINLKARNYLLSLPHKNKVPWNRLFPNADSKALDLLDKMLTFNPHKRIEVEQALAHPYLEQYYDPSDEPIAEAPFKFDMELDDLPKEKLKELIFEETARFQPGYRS

[5] = biological target: Proto-oncogene tyrosine-protein kinase Src (Homo sapiens, UniProt P12931); experiment: Inhibition of c-Src (unknown origin)
Proto-oncogene tyrosine-protein kinase Src, sequence (P12931 2-536 limits assumed): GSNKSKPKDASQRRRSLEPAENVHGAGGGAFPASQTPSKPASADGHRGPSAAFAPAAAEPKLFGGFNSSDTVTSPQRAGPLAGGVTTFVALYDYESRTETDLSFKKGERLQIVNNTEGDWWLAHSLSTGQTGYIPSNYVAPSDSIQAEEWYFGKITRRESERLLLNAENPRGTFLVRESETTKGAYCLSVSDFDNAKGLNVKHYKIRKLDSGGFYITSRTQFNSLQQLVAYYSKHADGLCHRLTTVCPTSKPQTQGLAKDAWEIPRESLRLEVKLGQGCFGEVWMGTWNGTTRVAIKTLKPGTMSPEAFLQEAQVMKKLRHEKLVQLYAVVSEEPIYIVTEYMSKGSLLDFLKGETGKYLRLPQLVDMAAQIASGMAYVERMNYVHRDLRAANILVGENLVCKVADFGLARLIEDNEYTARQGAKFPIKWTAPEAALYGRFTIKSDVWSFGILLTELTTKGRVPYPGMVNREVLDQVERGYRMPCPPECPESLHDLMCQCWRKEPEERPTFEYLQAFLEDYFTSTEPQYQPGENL

[6] = biological target: T1, Serine/threonine-protein kinase haspin (Homo sapiens, UniProt Q8TF76)
T1 sequence (Q8TF76 whole entry): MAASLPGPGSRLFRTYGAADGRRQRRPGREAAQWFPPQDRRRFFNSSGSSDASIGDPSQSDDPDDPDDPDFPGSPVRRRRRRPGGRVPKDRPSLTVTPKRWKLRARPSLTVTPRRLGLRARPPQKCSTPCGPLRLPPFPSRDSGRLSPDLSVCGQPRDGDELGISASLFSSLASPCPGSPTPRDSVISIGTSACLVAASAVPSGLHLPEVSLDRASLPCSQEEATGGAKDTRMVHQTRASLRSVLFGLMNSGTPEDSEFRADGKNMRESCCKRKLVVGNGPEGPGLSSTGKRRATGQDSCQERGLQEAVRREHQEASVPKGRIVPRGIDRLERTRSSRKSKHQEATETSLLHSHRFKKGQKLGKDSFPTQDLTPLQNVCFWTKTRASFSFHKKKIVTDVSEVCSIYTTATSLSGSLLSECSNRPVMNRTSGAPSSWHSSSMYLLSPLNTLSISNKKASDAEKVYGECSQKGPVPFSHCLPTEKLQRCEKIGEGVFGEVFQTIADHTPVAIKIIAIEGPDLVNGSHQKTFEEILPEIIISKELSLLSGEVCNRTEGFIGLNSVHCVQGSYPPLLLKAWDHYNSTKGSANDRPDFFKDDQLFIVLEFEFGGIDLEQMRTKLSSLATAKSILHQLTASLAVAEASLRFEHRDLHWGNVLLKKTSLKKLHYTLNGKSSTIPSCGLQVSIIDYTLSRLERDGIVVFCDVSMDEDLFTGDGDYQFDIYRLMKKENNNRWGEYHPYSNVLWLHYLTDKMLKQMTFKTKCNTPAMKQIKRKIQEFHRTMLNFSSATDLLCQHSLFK

[7] = Binding affinity to full length human recombinant PKAc assessed as dissociation constant
[8] = biological target: T1, Serine/threonine-protein kinase haspin; remark: listed apart in the source
[9] = biological target: T1, Serine/threonine-protein kinase haspin; remark: listed apart in the source
[10] = biological target: cAMP-dependent protein kinase (PKA) (Homo sapiens, UniProt P22694+P17612+P22612)
Casein kinase 2 = Casein kinase 2 (Homo sapiens, UniProt P67870+P68400+P19784+Q8NEV1); experiment: Inhibition of human CK2; type: protein assay

SMILES: N=C(N)NCCCC(NC(=O)CCCCCNC(=O)C(Cc1c[nH]c2ccccc12)NC(=O)CCCCCNC(=O)c1ccc(-c2ccnc(N)n2)[se]1)C(=O)NC(CCCNC(=N)N)C(=O)NC(CCCNC(=N)N)C(=O)NC(CCCNC(=N)N)C(=O)NC(CCCNC(=N)N)C(=O)NC(CCCNC(=N)N)C(=O)NC(CCCCN)C(N)=O (configuration not stated)
- Kd [2]: 0.019 nM
- Kd [3]: 0.013 nM

SMILES: CC[C@H](C)[C@H](NC(=O)[C@H](CCC(=O)O)NC(=O)[C@H](CCC(=O)O)NC(=O)[C@H](Cc1ccc(P(=O)(O)O)cc1)NC(=O)[C@H](CCC(=O)O)NC(=O)COCC(=O)NCCOCCOCCOCCOCCOCCOCCOCCOCCn1cc(CCC(=O)N2CCN(c3cc(Nc4cc(C5CC5)[nH]n4)nc(C)n3)CC2)nn1)C(N)=O
- IC50 [5]: 160 nM

SMILES: C[C@H](N)C(=O)N[C@@H](CCCNC(=N)N)C(=O)N[C@@H](CCCCNC(=O)C[C@@H](NC(=O)CCCCCNC(=O)[C@H]1O[C@@H](n2cnc3c(N)ncnc32)[C@H](O)[C@@H]1O)C(=O)O)C(=O)N[C@@H](CCCCN)C(=O)N[C@@H](CCC(N)=O)C(=O)N[C@H](C(=O)N[C@@H](C)C(N)=O)[C@@H](C)O
- Kd [6]: 150 nM
- Kd [7]: 7700 nM
- Selectivity Index (Homo sapiens): 50

SMILES: C[C@H](N)C(=O)N[C@@H](CCCNC(=N)N)C(=O)N[C@@H](CCCCNC(=O)C[C@@H](NC(=O)CCCCCNC(=O)[C@H]1O[C@@H](n2cc(I)c3c(N)ncnc32)[C@H](O)[C@@H]1O)C(=O)O)C(=O)N[C@@H](CCCNC(=N)N)C(=O)N[C@@H](CCC(=O)O)C(=O)N[C@H](C(=O)N[C@@H](C)C(=O)N[C@H](CCCCN)C(N)=O)[C@H](C)O
- Kd [7]: 94 nM
- Selectivity Index (Homo sapiens): 4900
- Kd [8]: 0.019 nM
- Kd [9]: 0.019 nM

SMILES: CO[C@@H]1[C@H](N(C)C(=O)CCC(=O)NCCCOCCOCCOCCCNC(=O)COCC(=O)N[C@H]2CSSC[C@@H](C(=O)NCC(N)=O)NC(=O)NC(=O)[C@H](Cc3ccccc3)NC(=O)[C@H](C(C)C)NC(=O)[C@H](CCCNC(=N)N)NC(=O)[C@H](Cc3ccccc3)NC(=O)[C@H]([C@@H](C)O)NC2=O)C[C@H]2O[C@]1(C)n1c3ccccc3c3c4c(c5c6ccccc6n2c5c31)C(=O)NC4
- IC50 [10]: 2.6 nM

The next lines start with the values.

- IC50 [1]: 25 nM
SMILES: O=C(O)CC[C@H](NC(=O)[C@H](CCC(=O)O)NC(=O)[C@H](CCC(=O)O)NC(=O)[C@H](CCC(=O)O)NC(=O)CCC(=O)NCCCNc1nc2c(Br)c(Br)c(Br)c(Br)c2[nH]1)C(=O)O ({X1-Suc}-EEEE-OH)

- IC50 [1]: 130 nM
SMILES: NCCCNc1nc2c(Br)c(Br)c(Br)c(Br)c2[nH]1

- IC50 [4]: 1200 nM
SMILES: C#CCCCCNC(=O)CCCCCn1nc(N)c2cc(-c3c(-c4ccccc4)nn4ccccc34)nnc21

- IC50 [1]: 10000 nM
SMILES: COC(=O)CC[C@H](NC(=O)CCC(=O)NCCCNc1nc2c(Br)c(Br)c(Br)c(Br)c2[nH]1)C(=O)N[C@@H](CCC(=O)OC)C(=O)N[C@@H](CCC(=O)OC)C(=O)N[C@@H](CCC(=O)OC)C(=O)OC ({X1-Suc}-E(OMe)E(OMe)E(OMe)E(OMe)-OMe)

- IC50 [5]: 2900 nM
SMILES: C#CCCC(=O)N1CCN(c2cc(Nc3cc(C4CC4)[nH]n3)nc(C)n2)CC1

- IC50 (Casein kinase 2): 8000 nM
SMILES: O=C(O)Cc1c(Br)c(Br)c(Br)c2[nH]nnc12
